Laboratory results published in ChEMBL document CHEMBL4052762, “Synthesis and biological evaluation of pyrrole-based chalcones as CYP1 enzyme inhibitors, for possible prevention of cancer and overcoming cisplatin resistance” (Bioorg Med Chem Lett, 2017).

Tests used:
[1] = biological target: T1, Aryl hydrocarbon receptor (Homo sapiens, UniProt P35869); test: Antagonist activity at human AhR expressed in Saccharomyces cerevisiae W303-1A (ATCC 208352) transformed with an episomal plasmid containing a minimal CYC1 promoter, with a concatemer of five XRE enhancer sequences, linked to eGFP reporter gene and co-expressing ARNT assessed as inhibition of B[a]P agonist induced XRE-driven eGFP expression by measuring eGFP units at 5 uM after 18 hrs by …
T1 sequence (P35869 whole entry): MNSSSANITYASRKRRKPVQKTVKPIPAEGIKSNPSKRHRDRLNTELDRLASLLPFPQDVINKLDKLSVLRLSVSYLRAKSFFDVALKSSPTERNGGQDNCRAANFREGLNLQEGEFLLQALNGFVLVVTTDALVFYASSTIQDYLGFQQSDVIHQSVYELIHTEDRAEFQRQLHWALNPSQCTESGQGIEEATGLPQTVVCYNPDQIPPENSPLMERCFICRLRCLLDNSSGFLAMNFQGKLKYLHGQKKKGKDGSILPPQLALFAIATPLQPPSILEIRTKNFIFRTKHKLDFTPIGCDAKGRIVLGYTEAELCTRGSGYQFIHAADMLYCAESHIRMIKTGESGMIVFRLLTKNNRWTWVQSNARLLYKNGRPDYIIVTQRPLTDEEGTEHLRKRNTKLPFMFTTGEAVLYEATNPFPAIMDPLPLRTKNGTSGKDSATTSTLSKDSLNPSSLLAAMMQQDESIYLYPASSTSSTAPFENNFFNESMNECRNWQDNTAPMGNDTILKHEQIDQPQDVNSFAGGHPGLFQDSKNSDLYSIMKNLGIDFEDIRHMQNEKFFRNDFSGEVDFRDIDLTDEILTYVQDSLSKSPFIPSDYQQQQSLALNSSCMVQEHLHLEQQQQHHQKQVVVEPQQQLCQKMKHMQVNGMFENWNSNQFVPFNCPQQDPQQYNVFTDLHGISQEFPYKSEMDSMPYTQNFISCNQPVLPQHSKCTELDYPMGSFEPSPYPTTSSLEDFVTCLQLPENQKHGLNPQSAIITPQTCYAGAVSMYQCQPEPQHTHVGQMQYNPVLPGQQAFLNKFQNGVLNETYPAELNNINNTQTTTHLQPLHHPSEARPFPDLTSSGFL

Cytochrome P450 3A4 = Cytochrome P450 3A4 (Homo sapiens, UniProt P08684); test: Inhibition of human CYP3A4 expressed in HEK293 cells using fluorogenic dibenzylfluorescein as substrate preincubated for 30 mins followed by substrate addition measured for 60 mins by fluorescence assay; type: ADME, cell-based
Chain of Cytochrome P450 3A4 (P08684 whole entry): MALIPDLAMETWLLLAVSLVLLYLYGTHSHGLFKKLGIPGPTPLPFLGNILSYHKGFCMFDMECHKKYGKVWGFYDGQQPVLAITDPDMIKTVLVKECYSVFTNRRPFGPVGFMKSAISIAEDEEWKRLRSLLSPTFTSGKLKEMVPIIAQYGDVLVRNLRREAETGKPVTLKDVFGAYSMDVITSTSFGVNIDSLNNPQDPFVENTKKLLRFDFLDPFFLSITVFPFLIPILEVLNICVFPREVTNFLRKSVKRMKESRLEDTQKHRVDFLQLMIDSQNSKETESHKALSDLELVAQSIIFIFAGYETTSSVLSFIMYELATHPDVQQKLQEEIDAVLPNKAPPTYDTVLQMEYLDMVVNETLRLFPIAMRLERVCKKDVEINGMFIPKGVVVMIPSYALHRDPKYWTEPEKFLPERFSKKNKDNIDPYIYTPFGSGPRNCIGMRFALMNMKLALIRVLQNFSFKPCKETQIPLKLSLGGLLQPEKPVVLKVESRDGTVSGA

Cytochrome P450 2C9 [2] = biological target: T2, Cytochrome P450 2C9 (Homo sapiens, UniProt P11712); test: Inhibition of human CYP2C9 expressed in HEK293 cells using fluorogenic 3-cyano-7-ethoxycoumarin as preincubated for 30 mins followed by substrate addition measured for 60 mins by fluorescence assay; type: ADME, cell-based
T2 sequence (P11712 whole entry): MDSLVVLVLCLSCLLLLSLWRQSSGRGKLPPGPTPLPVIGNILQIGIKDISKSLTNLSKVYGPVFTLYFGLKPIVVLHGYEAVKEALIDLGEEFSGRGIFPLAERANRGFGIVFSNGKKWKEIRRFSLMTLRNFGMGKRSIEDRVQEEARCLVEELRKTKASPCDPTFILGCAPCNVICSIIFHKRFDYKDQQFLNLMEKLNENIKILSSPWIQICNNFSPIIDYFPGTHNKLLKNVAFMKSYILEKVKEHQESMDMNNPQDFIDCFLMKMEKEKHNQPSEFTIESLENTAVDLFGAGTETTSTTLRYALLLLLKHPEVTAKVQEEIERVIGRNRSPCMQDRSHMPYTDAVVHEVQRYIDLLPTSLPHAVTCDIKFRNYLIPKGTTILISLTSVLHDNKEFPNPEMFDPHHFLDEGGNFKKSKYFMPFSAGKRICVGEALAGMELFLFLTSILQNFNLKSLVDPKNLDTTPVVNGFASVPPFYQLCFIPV

[3] = biological target: T1, Aryl hydrocarbon receptor; test: Antagonist activity at human AhR expressed in Saccharomyces cerevisiae W303-1A (ATCC 208352) transformed with an episomal plasmid containing a minimal CYC1 promoter, with a concatemer of five XRE enhancer sequences, linked to eGFP reporter gene and co-expressing ARNT assessed as inhibition of B[a]P agonist induced XRE-driven eGFP expression by measuring eGFP units at 10 uM after 18 hrs by …
Cytochrome P450 2D6 = Cytochrome P450 2D6 (Homo sapiens, UniProt P10635); test: Inhibition of human CYP2D6 expressed in HEK293 cells using fluorogenic 7-ethoxy-methyloxy-3-cyanocoumarin as substrate preincubated for 30 mins followed by substrate addition measured for 60 mins by fluorescence assay; type: ADME, cell-based
Chain of Cytochrome P450 2D6 (P10635 whole entry): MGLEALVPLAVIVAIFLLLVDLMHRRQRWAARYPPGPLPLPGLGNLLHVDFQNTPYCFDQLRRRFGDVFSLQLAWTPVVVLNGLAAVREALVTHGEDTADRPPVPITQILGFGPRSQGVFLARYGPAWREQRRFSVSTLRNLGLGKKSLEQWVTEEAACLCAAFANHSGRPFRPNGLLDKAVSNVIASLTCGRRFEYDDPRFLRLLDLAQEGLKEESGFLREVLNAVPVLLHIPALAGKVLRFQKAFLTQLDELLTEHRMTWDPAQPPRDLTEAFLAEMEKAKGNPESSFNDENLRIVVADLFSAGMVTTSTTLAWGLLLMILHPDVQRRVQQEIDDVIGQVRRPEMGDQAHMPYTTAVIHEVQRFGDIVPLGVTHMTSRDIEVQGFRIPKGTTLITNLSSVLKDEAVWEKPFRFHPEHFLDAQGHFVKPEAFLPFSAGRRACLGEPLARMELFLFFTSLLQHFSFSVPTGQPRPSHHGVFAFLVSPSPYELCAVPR

Cytochrome P450 2C9 [4] = biological target: T2, Cytochrome P450 2C9; test: Inhibition of human CYP2C9 bound to yeast microsomal membrane using 3-cyano-7-ethoxycoumarin as substrate after 10 mins by fluorescence assay; type: ADME
Cytochrome P450 1B1 [5] = biological target: T3, Cytochrome P450 1B1 (Homo sapiens, UniProt Q16678); test: Inhibition of human CYP1B1 bound to yeast microsomal membrane using 7-ethoxyresorufin as substrate after 10 mins by fluorescence assay
T3 sequence (Q16678 whole entry): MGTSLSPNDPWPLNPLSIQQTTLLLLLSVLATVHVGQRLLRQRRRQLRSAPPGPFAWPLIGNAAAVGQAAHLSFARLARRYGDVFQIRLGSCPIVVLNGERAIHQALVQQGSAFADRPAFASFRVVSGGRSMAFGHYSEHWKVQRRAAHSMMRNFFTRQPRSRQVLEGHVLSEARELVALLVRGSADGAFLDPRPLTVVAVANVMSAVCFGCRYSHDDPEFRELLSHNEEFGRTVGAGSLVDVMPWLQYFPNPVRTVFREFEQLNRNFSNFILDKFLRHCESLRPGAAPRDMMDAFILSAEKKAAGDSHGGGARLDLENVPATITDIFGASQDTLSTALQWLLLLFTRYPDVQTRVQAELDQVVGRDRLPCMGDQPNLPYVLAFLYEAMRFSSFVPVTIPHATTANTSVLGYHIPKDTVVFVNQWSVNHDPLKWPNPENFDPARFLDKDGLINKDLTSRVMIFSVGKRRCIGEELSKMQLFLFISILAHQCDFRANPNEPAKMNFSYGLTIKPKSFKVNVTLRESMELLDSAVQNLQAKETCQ

Cytochrome P450 1A2 = biological target: T4, Cytochrome P450 1A2 (Homo sapiens, UniProt P05177); test: Inhibition of human CYP1A2 expressed in HEK293 cells using fluorogenic 3-cyano-7-ethoxycoumarin as substrate preincubated for 30 mins followed by substrate addition measured for 60 mins by fluorescence assay; type: cell-based
T4 sequence (P05177 whole entry): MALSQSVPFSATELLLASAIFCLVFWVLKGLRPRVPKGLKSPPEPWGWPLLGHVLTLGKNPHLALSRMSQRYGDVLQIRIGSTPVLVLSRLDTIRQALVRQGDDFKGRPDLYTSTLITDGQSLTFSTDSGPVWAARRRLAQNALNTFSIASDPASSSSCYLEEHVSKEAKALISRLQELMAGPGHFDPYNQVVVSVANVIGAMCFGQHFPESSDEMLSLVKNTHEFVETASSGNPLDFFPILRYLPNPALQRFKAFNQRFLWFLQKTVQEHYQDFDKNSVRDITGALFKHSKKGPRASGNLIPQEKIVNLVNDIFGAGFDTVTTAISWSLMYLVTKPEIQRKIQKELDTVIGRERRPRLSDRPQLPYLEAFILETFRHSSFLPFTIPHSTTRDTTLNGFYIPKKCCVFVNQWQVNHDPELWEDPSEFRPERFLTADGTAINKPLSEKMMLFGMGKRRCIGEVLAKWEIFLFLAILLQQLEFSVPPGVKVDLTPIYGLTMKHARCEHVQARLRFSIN

Cytochrome P450 1B1 [6] = biological target: T3, Cytochrome P450 1B1; test: Inhibition of human CYP1B1 expressed in HEK293 cells using fluorogenic 7-ethoxyresorufin as substrate preincubated for 30 mins followed by substrate addition measured for 60 mins by fluorescence assay; type: cell-based

Row | Activity [1] [U] | IC50 (Cytochrome P450 3A4) [µM] | IC50 (Cytochrome P450 2C9 [2]) [µM] | Activity [3] [U] | IC50 (Cytochrome P450 2D6) [µM] | IC50 (Cytochrome P450 2C9 [4]) [µM] | IC50 (Cytochrome P450 1B1 [5]) [µM] | IC50 (Cytochrome P450 1A2) [µM] | IC50 (Cytochrome P450 1B1 [6]) [µM] | SMILES
1 | 955 | > 20 | > 20 | 955 | > 20 | > 20 | > 20 | > 20 | > 20 | O=C(/C=C/c1ccc(OC(F)(F)F)cc1)c1ccc[nH]1
2 | 220 | > 10 | > 10 | 150 | 20 | > 20 | 0.9 | 1.1 | 1.2 | COc1ccccc1/C=C/C(=O)c1ccc[nH]1
3 | 770 | > 10 | > 10 | 455 | > 10 | > 20 | 0.2 | 0.9 | 0.25 | O=C(/C=C/c1ccccc1Cl)c1ccc[nH]1
